Active and inactive are the calls of the source.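 The calls were made as follows: active = inhibition of at least 30% at one or more tested concentrations; inactive = inhibition below 30% at every dose.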

For 84 compounds, CPE inhibition results are on record in PubChem BioAssay AID1250 (SRMLSC, 2008).

This assay is described as follows: antiviral protection against BTV-induced cell death – arbovirus, BSR cells, confirmation (AID 1250). The settings on record: BSR cells, Bluetongue virus CPE, ATP luminescence, 72 h; at 20 µM (top of the series).

On to `COc1ccc2nc(NC(=O)C3=NN(c4ccccc4)C(=O)CC3)sc2c1`, for which the CPE inhibition was -2.13% (inactive).
With `O=C(CSc1nc2nn(-c3ccccc3)c(=O)c-2c2n1CCCCC2)NCCc1ccccc1`, the CPE inhibition is 10.8% (inactive).
`CCOC(=O)c1ccc(NC(=O)Cn2nnc(-c3ccccc3)n2)cc1`: the CPE inhibition is 12.9% (inactive).
Regarding `N#Cc1c(-c2ccco2)nc(SCC(=O)Nc2ccc(S(N)(=O)=O)cc2)[nH]c1=O`, the CPE inhibition was 4.9% (inactive).
For `Cc1cccc(S(=O)(=O)Nc2nc3ccccc3nc2NCc2ccco2)c1`, the CPE inhibition is 12.1% (inactive).
For the compound `O=C(Nc1scc(-c2ccccc2)c1C(=O)O)c1ccco1`, the CPE inhibition was 10.9% (inactive).
Take `CN(C)/N=C/c1ccc(P(c2ccc(/C=N/N(C)C)o2)c2ccc(/C=N/N(C)C)o2)o1`: the CPE inhibition is 10.4% (inactive).
`CCOC(=O)c1c(O)c2c(n(Cc3ccco3)c1=O)CCCC2`: the CPE inhibition is 14.7% (inactive).
Take `Cc1nc(Nc2ccccc2)sc1-c1ccccc1`: the CPE inhibition is 3.32% (inactive).
For `c1ccc(-c2csc3ncnc(NCCCN4CCOCC4)c23)cc1`, the CPE inhibition was 4.19% (inactive).
In the case of `Cc1ccc(CSc2nnc(NC(=O)C3COc4ccccc4O3)s2)cc1` (centres undefined), the CPE inhibition was 26.6% (inactive).
Consider `Cc1ccc2nc(NC(=O)C3CCCN(S(=O)(=O)c4cnc[nH]4)C3)sc2c1` (centres undefined), for which the CPE inhibition was 22.3% (inactive).
In the case of `Cc1ccc(OCCSCc2nnc(NC(=O)Nc3cccc(Cl)c3)s2)cc1` it was 19.4% (inactive); in that of `O=C(N/N=C/c1c(O)n(-c2ccccc2Cl)c(=O)c2ccccc12)c1cccnc1`, 26% (inactive).
As to `O=C(Nc1nnc(SCc2ccc(F)cc2)s1)c1ccc2c(c1)C(=O)N(c1ccccc1Cl)C2=O`, the CPE inhibition is 20.2% (inactive).
The value for `O=C(CSc1ncn[nH]1)Nc1nc(-c2ccccc2)ns1` was 6.55% (inactive); that for `CCCn1c(N)c(C(=O)CSc2nc3ccccc3c(=O)n2-c2ccc(OC)cc2)c(=O)[nH]c1=O` was 1.41% (inactive); that for `O=c1[nH]c(SCc2ccccc2)nnc1-c1ccccc1` was 3.2% (inactive).
Take `Cc1ccc(C2CC(=O)c3cnn(-c4nc(C)cc(C)n4)c3C2)cc1` (centres undefined): the CPE inhibition is 5.7% (inactive).
With `O=C(O)c1cc(N/N=C/c2ccc(OCc3ccccc3)cc2)ccc1Cl`, the CPE inhibition was 19.7% (inactive).
The value for `CCOc1ccc2nc(NC(=O)C3=NN(c4ccccc4)C(=O)CC3)sc2c1` was 25% (inactive); that for `CCCCn1c(SCC(=O)N2CCN(c3ccccc3)CC2)nc2ccsc2c1=O` was 6.77% (inactive).
Regarding `Cc1oc(-c2ccccc2Cl)nc1CSCC(=O)N1CCCC1`, the CPE inhibition was 16.4% (inactive).
Regarding `CC1CCCN(C(=O)c2cccc(S(=O)(=O)Nc3cc(C(F)(F)F)ccc3Cl)c2)C1` (centres undefined), the CPE inhibition is 28.2% (inactive).
In the case of `COC(=O)c1c(SCc2ccc(C#N)cc2)nc(=O)[nH]c1C`, the CPE inhibition was 4.66% (inactive).
On to `CC(C)(C)c1ccc(C(=O)NC(=S)NCC2CCCO2)cc1` (centres undefined), for which the CPE inhibition is 3.96% (inactive).
As to `COCCn1c(SCc2nc3scc(-c4ccc(Cl)cc4)c3c(=O)[nH]2)nnc1-c1cccc(C)c1`, the CPE inhibition was 17.4% (inactive).
On to `CC1=Nc2ccc(C)cc2/C1=C/c1c(N)n2c(S(=O)(=O)C(C)C)nsc2nc1=O`, for which the CPE inhibition was 15.9% (inactive).
In the case of `COCCn1c(SCC(=O)Nc2cc(Cl)ccc2OC)nc2c(c1=O)SC(C)C2` (centres undefined) it was 17.7% (inactive); in that of `Cc1nc(NS(=O)(=O)c2ccccc2C)c2c3c(sc2n1)CCC3`, 27.6% (inactive).
Turning to `CCCC(=O)Oc1ccccc1C1SCc2cc(C)c(C)cc2CS1`, the CPE inhibition was 6.38% (inactive).
Turning to `COc1cc(/C=C/C(=O)c2c(O)n(CCc3ccccc3)c(=O)[nH]c2=O)ccc1O`, the CPE inhibition is 13% (inactive).
With `COC(=O)c1cc(NC(=S)NCc2ccc(Cl)cc2)cc(C(=O)OC)c1`, the CPE inhibition was -1.18% (inactive).
The value for `COc1ccccc1/C=C/C=C1N=C(/C=C/c2ccc(Cl)cc2)OC/1=O` was 25.2% (inactive); that for `O=C(/C=C/c1ccc2c(c1)OCCCO2)c1ccc2ccccc2c1O` was 18.2% (inactive); that for `CC1(C)C2CCC(C2)C1(C)NC(=O)CNCc1cccs1` (centres undefined) was 2.65% (inactive).
For the compound `CC(C)S(=O)(=O)C1=NSC2=NC(=O)/C(=C\c3ccc(-c4cccc(C(=O)O)c4)o3)C(=N)N21`, the CPE inhibition is 24.2% (inactive).
In the case of `O=C(O)c1cnc(-c2ccccc2)nc1Sc1ccccc1Cl` it was 11.8% (inactive); in that of `O=C(CCCN1C(=O)/C(=C/c2cccs2)SC1=S)Nc1cccc(C(=O)O)c1`, 1.7% (inactive).
In the case of `N=C(N)SCc1nc2ccccc2c(=O)n1-c1ccccc1` it was -4.62% (inactive); in that of `Cc1ccccc1N=C1NC(=O)/C(=C/c2cccn2-c2cccc(C(=O)O)c2)S1`, 21.3% (inactive).
As to `O=C(CSc1nnc(NC(=O)c2c(F)cccc2F)s1)Nc1ccc(F)cc1`, the CPE inhibition is 3.41% (inactive).
On to `Cc1ccc(-n2cccc2/C=C2\C(=N)N3N=C(C(C)C)SC3=NC2=O)cc1`, for which the CPE inhibition was 25.2% (inactive).
The value for `CC(=O)Nc1ccc(SCC(=O)N(CCC#N)c2cc(C)cc(C)c2)cc1` was 18% (inactive); that for `CC(C)CSC1=NSC2=NC(=O)/C(=C\c3coc4ccccc4c3=O)C(=N)N12` was 14% (inactive); that for `CCOC(=O)c1c(NC(=O)CSc2ncn[nH]2)sc(C)c1C` was 21% (inactive).
The value for `Cc1cc(C)c(NC(=S)NC(=O)c2ccc(-c3ccccc3)cc2)c(C)c1` was 14.9% (inactive); that for `O=Cc1ccc(OCc2ccccn2)cc1` was 2.77% (inactive); that for `O=C(CSc1ncn(-c2ccccc2)n1)Nc1nc2ccccc2s1` was 10.5% (inactive).
The value for `O=C(O)c1ccccc1CSc1ccccn1` was 2.46% (inactive).
Consider `Cc1cccc(-n2nc(C)c3c(C(=O)O)cc(-c4cccs4)nc32)c1`, for which the CPE inhibition is 24.9% (inactive).
With `COc1ccccc1NC(=O)C12CC3CC(C1)CC(c1ccc(C)cc1)(C3)C2`, the CPE inhibition was 18.9% (inactive).
For the compound `O=C1CC(=O)N(Cc2ccco2)C(=O)N1`, the CPE inhibition is 2.11% (inactive).
Regarding `O=S(=O)(c1ccc(Oc2ccc(Cl)cc2)c(S(=O)(=O)N2CCCCC2)c1)N1CCCCC1`, the CPE inhibition is 22.6% (inactive).
As to `O=S(=O)(Nc1ccc(-c2nnc(SCc3ccc(Cl)cc3)o2)cc1)c1ccccc1`, the CPE inhibition is 7.09% (inactive).
As for `Cc1ccc(C(=O)N/C(=C\c2cccs2)C(=O)NCc2cccnc2)cc1`, the CPE inhibition is 10.2% (inactive).
The value for `Cc1ccc(CSCc2nc3ccccc3[nH]2)cc1` was 12.9% (inactive); that for `Oc1ccc(-c2n[nH]c(=S)n2-c2ccc3c(c2)OCCO3)c(O)c1` was 18.1% (inactive).
For `COC(=O)C1=C(C)N(Cc2ccco2)C(=O)N[C@@H]1c1cccc(C(F)(F)F)c1`, the CPE inhibition was 21.6% (inactive).
In the case of `COc1ccc2ccc(O)c(CN3CC=C(c4ccccc4)CC3)c2c1`, the CPE inhibition is 14.6% (inactive).
Regarding `COc1cccc2sc(NN)nc12`, the CPE inhibition is 15.8% (inactive).
Regarding `COc1ccc(Cl)cc1NC(=O)C1COc2ccccc2O1` (centres undefined), the CPE inhibition was 26.3% (inactive).
For `COC(=O)c1ccccc1NC(=O)c1ccc(COc2ccc(C)c(C)c2)o1`, the CPE inhibition was 27.6% (inactive).
Turning to `CC(C)CCN(C(=S)NC(=O)C1CCCCC1)c1c(N)n(Cc2ccccc2)c(=O)[nH]c1=O`, the CPE inhibition was 7% (inactive).
Turning to `CCCCCc1nnc(NC(=O)C2COc3ccccc3O2)s1` (centres undefined), the CPE inhibition is 17.9% (inactive).
As to `COc1ccc(S(=O)(=O)N/N=C(/C)c2cccc(NC(=O)c3ccccc3Cl)c2)cc1`, the CPE inhibition is 15% (inactive).
For `Nc1c(-c2ccccc2)c(CSc2nc3ccccc3[nH]2)nn1-c1cccc(Cl)c1`, the CPE inhibition was 23.8% (inactive).
For `COc1ccc(C(=O)Nc2sc3c(c2C(=O)O)CC(C)(C)OC3)cc1`, the CPE inhibition was 27.2% (inactive).
As for `CCOc1cccc2sc(NN)nc12`, the CPE inhibition is 14.3% (inactive).
As to `CC(C)(CO)CNC(=O)CC1C(=O)NCCN1CC(c1ccccc1)c1ccccc1` (centres undefined), the CPE inhibition is 1.48% (inactive).
On to `C/C(=N\NC(=O)c1c(Cl)c(C)nn1C)c1ccc(NC(=O)c2ccncc2)cc1`, for which the CPE inhibition was 17.7% (inactive).
In the case of `CSc1nc(-c2ccc(Cl)cc2Cl)[nH]c(=O)c1C#N` it was 24.3% (inactive); in that of `O=C(NC1CCN(Cc2ccccc2)CC1)c1cccc(S(=O)(=O)Nc2cc(C(F)(F)F)ccc2Cl)c1`, 21.7% (inactive); in that of `Cc1ccc(S(=O)(=O)Oc2ccc(C)cc2/C=N/N=C2\NC(=O)C(C)S2)cc1` (centres undefined), 25.2% (inactive).
For the compound `CC(C)(C)c1ccc(N/N=C(\C#N)S(=O)(=O)C(C)(C)C)cc1`, the CPE inhibition was 23.9% (inactive).
For `O=C(Nc1cccc(NC(=O)c2cccs2)c1)c1ccco1`, the CPE inhibition was 20.1% (inactive).
Take `Cc1cccc(N2CCN(C(=O)C3COc4ccccc4O3)CC2)c1C` (centres undefined): the CPE inhibition is 19.7% (inactive).
On to `COc1ccccc1NC(=S)NCCSc1ccc(C)cc1`, for which the CPE inhibition is 10.1% (inactive).
With `COc1ccc(C2=CC(c3ccc(C)cc3)n3nnnc3N2)cc1` (centres undefined), the CPE inhibition is 6.94% (inactive).
Take `Oc1ccc(Br)cc1-c1nc2cnccn2c1NC1CCCC1`: the CPE inhibition was 16.6% (inactive).
Regarding `COc1ccc(Cn2c(C)c(C)c(C#N)c2NC(=O)Nc2cccc(Cl)c2)cc1`, the CPE inhibition is 10.6% (inactive).
`CN(C)C(=O)COC(=O)c1ccccc1Nc1ccc(SC(F)F)cc1`: the CPE inhibition is 23% (inactive).
Consider `N#CC(C#N)=Cc1cc2ccccc2nc1N1CCCCC1`, for which the CPE inhibition was 12.6% (inactive).
`O=c1/c(=C/c2ccc(O)c([N+](=O)[O-])c2)sc2nc3ccccc3n12`: the CPE inhibition is 12.4% (inactive).
